According to US12006355B2, “Nanobodies against cystic fibrosis transmembrane conductance regulator (CFTR) inhibitory factor (Cif)” (priority 2017, dated 2024):
Several values for one entry are separate records, joined by “and”; a condition that tells them apart may be missing. Equal entries are not always repeated.

What was measured:
Cif [1] = target: T1, Cif (Pseudomonas aeruginosa, UniProt A0A0H2ZD27); assay: Competitive or displacement sandwich ELISA (dsELISA) with Nb 219; assay type: binding
T1 construct: made in house
Method: 2). Competitive or Displacement Sandwich assay. A 96-well plate was coated with pAb at 3 μg/mL, 100 μL per well at RT for 1 h. The plate was blocked with 1% skimmed milk in PBST at RT for at least 2 h. Cif in PBS was loaded at 20 ng/mL, 100 μL/well and incubated for 1 h at RT. Following 5 times wash with PBST, a serial dilution of small molecule synthetic inhibitors in PBS containing 20% methanol at 50 μL/well was loaded, followed by 50 μL/well of VHH at 0.1 μg/mL (or 5 ng/well) in PBS and incubated for 1 h at RT. Mouse anti-HA-HRP conjugate was added at 100 μl/well in a 1:3000 dilution as instructed by manufacturer. The plate was incubated for 1h at RT and washed 5 times. The plate was developed for 10 min with substrate solution added at 100 μl/well. The reaction was stopped by addition of 2M H2SO4 (50 μl/well) and absorbance was read at 450 nm. SigmaPlot 11.0 software was used for curve fitting and data analysis.
Development of nanobody-based screening assay. […] In this assay, the plate was coated with polyclonal anti-Cif antibody (pAb) that captured Cif-protein. Inhibitory anti-Cif Nb in role of a reporter was added at constant concentration together with a serial dilution of a tested inhibitor. […] In this assay, the amount of anti-Cif pAb loaded in the plate was optimized first. […] Second, the amount of Cif-protein captured on pAb was optimized. […] Both nanobodies 113 and 219 were evaluated in the inhibitory assay.

Cif [2] = target: T1, Cif; assay: biochemical; settings: Fluorescent assay IC50, Table 7, small molecule inhibitors
Method: Fluorescent-based Cif Inhibitory assay. Activity of enzyme was measured using a sensitive fluorescent-based assay similar to the method previously described for other EHs (29,30). Cyano(6-methoxynaphthalen-2-yl)methyl glycidyl carbonate (CMNGC) was used as a fluorescent reporter substrate. […] A schematic of the assay is depicted in FIG. 1.
Reported IC50 values are the average of triplicates with at least two data points above and at least two below the IC50. […] Control experiments without Cif (inhibitor/VHH and substrate) were used to evaluate the intrinsic fluorescence of inhibitors.

Cif [3] = target: T1, Cif; assay: Octet bio-layer interferometry; assay type: binding; settings: steady state analysis, 30° C.
Method: Octet Bio-Layer Interferometry: KD of Cif and their inhibitors was determined by Bio-Layer Interferometry using an Octet Red instrument (ForteBio). Recombinant Cif-His was prepared as described previously (20,29). Stocks of purified proteins were stored at 4° C. until used.

T1 sequence (A0A0H2ZD27 25-319 limits assumed): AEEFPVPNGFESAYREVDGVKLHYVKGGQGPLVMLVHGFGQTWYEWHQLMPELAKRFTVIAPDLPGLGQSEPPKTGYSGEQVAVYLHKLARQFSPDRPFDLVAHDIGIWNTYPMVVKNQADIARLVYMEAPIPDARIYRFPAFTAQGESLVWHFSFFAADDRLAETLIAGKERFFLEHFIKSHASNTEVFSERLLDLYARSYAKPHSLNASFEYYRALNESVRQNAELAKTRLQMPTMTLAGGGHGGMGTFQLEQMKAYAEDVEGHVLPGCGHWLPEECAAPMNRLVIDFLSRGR

SMILES | EC50 (Cif [1]) [nM] | IC50 (Cif [2]) | Kd (Cif [3]) | fold more potent than 8c (Cif [1]; nanobody-based inhibitory sandwich ELISA) [fold]
O=C(O)CC(=O)Nc1cc(Cl)c(Oc2ccc(O)cc2)c(Cl)c1 [Compound 1, 3-((3,5-dichloro-4-(4-hydroxyphenoxy)phenyl)amino)-3-oxopropanoic acid, reference compound] | > 200000 | > 50000 nM |  | 
NC(=O)c1ccc(-c2cc(Oc3c(Cl)cc(N)cc3Cl)ccc2O)cc1 [Compound 7, 5′-(4-amino-2,6-dichlorophenoxy)-2′-hydroxy-[1,1′-biphenyl]-4-carboxamide] | 700 | ~500 nM and 550 nM | 900 nM | 
CCC(=O)Nc1cc(Cl)c(Oc2ccc(O)c(-c3ccc(C(N)=O)c(F)c3)c2)c(Cl)c1 [Compound 8, 5′-(2,6-dichloro-4-propionamidophenoxy)-3-fluoro-2′-hydroxy-[1,1′-biphenyl]-4-carboxamide] | 200 | ~500 nM and 470 nM | 160 nM and 200 nM | 1
